Reference: US20080275058A1, “N-Substituted-1H-Quinoline-2,4-Diones, Preparation Method Thereof, And Pharmaceutical Composition Containing The Same” (KOREA RESEARCH INSTITUTE OF CHEMICAL TECHNOLOGY, priority 2005, published 2008)
Read-outs that look alike come from different tables or passages of the source.

Legend:
5-HT7 = biological target: T1, 5-HT7 (Homo sapiens, UniProt P34969); assay: Radioligand binding, 5-HT7 ([3H]LSD); conditions: Table 4; [3H]LSD 3 nM; read-out: Binding affinity, IC50 (nM) 5-HT7
T1 construct: purchased Euroscreen/BioSignal Packard Inc

5-HT2c = biological target: T2, 5-HT2c (Homo sapiens, UniProt P28335); assay: Radioligand binding, 5-HT2c ([3H]Mesulergine); conditions: Table 4; [3H]Mesulergine 1 nM; read-out: Binding affinity, IC50 (nM) 5-HT2c
T2 construct: purchased Euroscreen/BioSignal Packard Inc
T2 sequence (P28335 33-458): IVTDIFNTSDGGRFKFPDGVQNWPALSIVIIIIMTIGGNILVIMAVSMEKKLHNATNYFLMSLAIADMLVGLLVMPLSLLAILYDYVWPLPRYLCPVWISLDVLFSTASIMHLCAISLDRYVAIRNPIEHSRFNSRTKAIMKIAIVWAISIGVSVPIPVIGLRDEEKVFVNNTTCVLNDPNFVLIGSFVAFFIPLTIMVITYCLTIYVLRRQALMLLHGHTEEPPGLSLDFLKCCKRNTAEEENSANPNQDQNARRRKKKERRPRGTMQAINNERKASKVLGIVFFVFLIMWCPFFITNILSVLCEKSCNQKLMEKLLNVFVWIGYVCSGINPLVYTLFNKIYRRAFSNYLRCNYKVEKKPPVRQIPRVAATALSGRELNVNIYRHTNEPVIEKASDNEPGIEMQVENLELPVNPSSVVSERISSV

hD4.2 receptor = biological target: T3, hD4.2 receptor (Homo sapiens, UniProt P21917, DEL265-296); assay: Radioligand binding, dopamine D4 ([3H]YM-09151-2); conditions: Table 4; [3H]YM-09151-2 0.06 nM; read-out: Binding affinity, IC50 (nM) D4
T3 construct: purchased BioSignal Packard Inc., Montreal, Canada
T3 sequence (P21917 with tags, fused parts or gaps DEL265-296): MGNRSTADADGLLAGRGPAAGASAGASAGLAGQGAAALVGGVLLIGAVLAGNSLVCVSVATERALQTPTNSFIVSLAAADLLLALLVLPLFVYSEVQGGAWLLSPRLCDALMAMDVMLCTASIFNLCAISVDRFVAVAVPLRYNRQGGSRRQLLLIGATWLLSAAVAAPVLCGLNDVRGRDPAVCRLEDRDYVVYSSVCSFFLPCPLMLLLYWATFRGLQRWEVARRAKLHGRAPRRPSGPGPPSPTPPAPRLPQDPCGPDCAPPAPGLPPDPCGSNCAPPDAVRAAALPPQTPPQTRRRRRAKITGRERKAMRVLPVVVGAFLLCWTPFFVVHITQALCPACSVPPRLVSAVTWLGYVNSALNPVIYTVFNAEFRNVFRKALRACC
In short: (§1)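 IC50 values come from nonlinear fits of three displacement experiments, each using 7-8 test concentrations in duplicate. D2L and D3 membranes were labelled with 1 nM [3H]spiperone, and D4.2 with 0.06 nM [3H]YM-09151-2. All assays used pH 7.4 Tris buffers, with the D3 buffer adding 120 mM NaCl, KCl and CaCl2.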

[1] = biological target: T4, Human serotonin 5-HT6 receptor (Homo sapiens, UniProt P50406); assay: [3H]LSD binding assay on cloned 5-HT6 receptor membranes
T4 construct: made in house; host or cells: insect Sf21 cells (baculovirus vector BacPAK8)

D1 = D1 (Homo sapiens, UniProt P21728); assay: Radioligand binding, dopamine D1; conditions: Table 4; read-out: Binding affinity, IC50 (nM) D1
mice = assay: Rotarod deficit in mice; assay type: in vivo, mouse
Method: (§2) The mouse was placed on a 1 inch diameter knurled plastic rod rotating at 6 rpm (Ugo-Basile, Milano, Italy), and the rotarod deficit (%) was obtained by counting the number of animals fallen from the rotating rod within 1 min [Dunham et al., 1957] at 60, 90 and 120 min after the injection of the compound according to the invention(200, 300 or 400 ? ). […] The compounds of the examples were suspended in 3% Tween 80 solution, and were administered (p.o.) 60 min before the testing.

Rotarod deficit in mice = assay type: in vivo, mouse; conditions: mouse, in vivo, po, unit printed as image, read-out: TD50 (median neurotoxic dose)
Method: as §2

hD3 = biological target: T5, hD3 (Homo sapiens, UniProt P35462); assay: Radioligand binding, dopamine D3 ([3H]spiperone); conditions: Table 4; [3H]spiperone 1 nM; read-out: Binding affinity, IC50 (nM) D3
T5 construct: purchased BioSignal Packard Inc., Montreal, Canada
In short: as §1

hD2L = biological target: T6, hD2L (Homo sapiens, UniProt P14416); assay: Radioligand binding, dopamine D2 ([3H]spiperone); conditions: Table 4; [3H]spiperone 1 nM; read-out: Binding affinity, IC50 (nM) D2
T6 construct: purchased BioSignal Packard Inc., Montreal, Canada
In short: as §1

5-HT2a = biological target: T7, 5-HT2a (Homo sapiens, UniProt P28223); assay: Radioligand binding, 5-HT2a ([3H]Ketanserin); conditions: Table 4; [3H]Ketanserin 1 nM; read-out: Binding affinity, IC50 (nM) 5-HT2a
T7 construct: purchased Euroscreen/BioSignal Packard Inc

5-HT1a = biological target: T8, 5-HT1a (Homo sapiens, UniProt P08908); assay: Radioligand binding, 5-HT1a ([3H]8-OH-DPAT); conditions: Table 4; [3H]8-OH-DPAT 0.5 nM; read-out: Binding affinity, IC50 (nM) 5-HT1a
T8 construct: purchased Euroscreen/BioSignal Packard Inc
T8 sequence (P08908 1-422): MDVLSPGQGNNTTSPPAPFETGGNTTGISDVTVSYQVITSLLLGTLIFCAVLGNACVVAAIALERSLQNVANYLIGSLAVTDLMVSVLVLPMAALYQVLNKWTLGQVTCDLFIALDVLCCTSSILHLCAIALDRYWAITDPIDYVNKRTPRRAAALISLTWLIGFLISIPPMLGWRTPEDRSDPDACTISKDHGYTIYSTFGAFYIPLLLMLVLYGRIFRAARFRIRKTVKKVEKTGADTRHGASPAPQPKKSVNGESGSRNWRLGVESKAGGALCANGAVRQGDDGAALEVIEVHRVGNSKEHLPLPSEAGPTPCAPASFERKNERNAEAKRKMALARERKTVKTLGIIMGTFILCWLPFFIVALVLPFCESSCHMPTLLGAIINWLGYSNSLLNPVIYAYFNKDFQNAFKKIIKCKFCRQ
In short: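 Membranes bearing the receptor, bought in; radioligand displacement run per supplier protocol.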

5-HT6 receptors [2] = biological target: T9, 5-HT6 receptors (Homo sapiens, UniProt P50406); conditions: human 5-HT6 receptors, background literature; cited from earlier work
rats [3] = conditions: cited from earlier work
rats [4] = conditions: cited from earlier work; remark: listed apart in the source
rat = conditions: cited from earlier work; for anticonvulsant activity: background literature
5-HT6 receptors [5] = biological target: T9, 5-HT6 receptors; conditions: background literature, cited from earlier work; for affinity at 5-HT6 receptors, in words: antipsychotics
rats [6] = conditions: water maze; cited from earlier work
[7] = cited from earlier work
[8] = frontal cortex and dorsal hippocampus; cited from earlier work
rats [9] = assay: Methamphetamine-induced disruption of prepulse inhibition (PPI) in rats; assay type: in vivo, rat
Method: To assay antipsychotic properties of the compounds according to the invention, prepulse inhibition (PPI) of acoustic startle in animals was performed. Startle response was measured using SR-LAB startle chamber (San Diego Instruments, San Diego, USA). The animal enclosure was housed in a ventilated and sound-attenuated startle chamber with 60 dB ambient noise level, and consisted of a Plexiglas cylinder 40 mm in diameter on a platform, connected to a piezoelectric accelerometer which detects and transducer motion within the cylinder. Acoustic noise bursts were presented through a loudspeaker mounted 24 ? above the animal. […] Each startle session began with a 5-min acclimatization period in the chamber to 68 dB background noises. The test session consisting of the following four different trial types was carried for all experiments: a 40 ms broadband 120 dB burst (P; pulse alone trial), P preceded 100 ms earlier by a 20 ms noise burst 10 dB above background (pP; prepulse+pulse trial), a 40 ms broadband 78 dB burst (prepulse alone trial), and a no stimulus trial (background). Eight trials of each type were presented in a pseudorandom order (total32 trials) with an average interval of 15 sec. separating each trial. An extra 5 pulse-alone trials were presented at the beginning and end of each test session, but were not used in the calculation of PPI values. PPI was defined as the percent reduction in startle amplitude in the presence of prepulse compared to the amplitude in the absence of the prepulse using the following Math Equation 1. […] Differences were considered significant at P<0.05. Statistical analyses were conducted using SigmaStat software (SigmaStat, Jandel Co., San Rafael, Calif.). The data were expressed as means±SEM.

[10] = Table 2, 1.87 nM [3H]LSD, 37 C, 60 min, read-out: IC50 (nM), binding affinity to the 5-HT6 receptor
[11] = Table 4, read-out: Binding affinity, IC50 (nM) 5-HT6

T1 sequence (P34969 whole entry): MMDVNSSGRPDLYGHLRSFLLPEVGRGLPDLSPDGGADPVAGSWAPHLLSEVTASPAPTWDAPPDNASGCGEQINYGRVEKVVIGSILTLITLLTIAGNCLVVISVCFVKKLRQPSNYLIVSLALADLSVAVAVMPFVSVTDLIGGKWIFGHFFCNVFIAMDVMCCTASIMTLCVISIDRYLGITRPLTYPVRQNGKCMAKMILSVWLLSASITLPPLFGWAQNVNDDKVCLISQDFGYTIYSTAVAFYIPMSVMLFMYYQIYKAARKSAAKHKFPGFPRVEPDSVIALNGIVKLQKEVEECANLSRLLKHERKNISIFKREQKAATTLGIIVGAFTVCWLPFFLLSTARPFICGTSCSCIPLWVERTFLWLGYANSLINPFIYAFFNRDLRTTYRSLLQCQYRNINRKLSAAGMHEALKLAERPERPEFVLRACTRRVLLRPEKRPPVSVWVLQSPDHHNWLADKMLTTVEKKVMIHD
T6 sequence (P14416 whole entry): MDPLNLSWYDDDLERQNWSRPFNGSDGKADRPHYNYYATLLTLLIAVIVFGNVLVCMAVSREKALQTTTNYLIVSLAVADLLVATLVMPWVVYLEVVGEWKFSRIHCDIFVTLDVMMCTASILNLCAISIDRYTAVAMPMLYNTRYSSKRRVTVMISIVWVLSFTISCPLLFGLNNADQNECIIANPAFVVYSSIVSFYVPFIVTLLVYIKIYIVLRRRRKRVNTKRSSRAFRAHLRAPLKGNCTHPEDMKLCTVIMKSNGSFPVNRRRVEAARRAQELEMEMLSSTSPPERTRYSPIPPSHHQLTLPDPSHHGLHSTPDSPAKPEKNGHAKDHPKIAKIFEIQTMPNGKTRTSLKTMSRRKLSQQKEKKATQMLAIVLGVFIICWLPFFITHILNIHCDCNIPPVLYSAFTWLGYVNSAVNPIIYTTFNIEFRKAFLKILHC
Sequence of D1 (P21728 whole entry): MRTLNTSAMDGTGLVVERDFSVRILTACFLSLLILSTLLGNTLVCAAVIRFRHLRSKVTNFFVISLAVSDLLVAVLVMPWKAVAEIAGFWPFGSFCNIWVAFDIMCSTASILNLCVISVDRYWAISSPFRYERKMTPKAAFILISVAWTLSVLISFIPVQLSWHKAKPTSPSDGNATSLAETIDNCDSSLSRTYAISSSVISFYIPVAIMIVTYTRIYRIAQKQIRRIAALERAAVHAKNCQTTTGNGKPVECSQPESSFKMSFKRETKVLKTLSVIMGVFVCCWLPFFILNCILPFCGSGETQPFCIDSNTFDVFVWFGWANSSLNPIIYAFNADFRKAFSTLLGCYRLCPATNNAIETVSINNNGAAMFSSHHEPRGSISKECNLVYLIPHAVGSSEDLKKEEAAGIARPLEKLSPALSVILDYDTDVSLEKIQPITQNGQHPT
T7 sequence (P28223 whole entry): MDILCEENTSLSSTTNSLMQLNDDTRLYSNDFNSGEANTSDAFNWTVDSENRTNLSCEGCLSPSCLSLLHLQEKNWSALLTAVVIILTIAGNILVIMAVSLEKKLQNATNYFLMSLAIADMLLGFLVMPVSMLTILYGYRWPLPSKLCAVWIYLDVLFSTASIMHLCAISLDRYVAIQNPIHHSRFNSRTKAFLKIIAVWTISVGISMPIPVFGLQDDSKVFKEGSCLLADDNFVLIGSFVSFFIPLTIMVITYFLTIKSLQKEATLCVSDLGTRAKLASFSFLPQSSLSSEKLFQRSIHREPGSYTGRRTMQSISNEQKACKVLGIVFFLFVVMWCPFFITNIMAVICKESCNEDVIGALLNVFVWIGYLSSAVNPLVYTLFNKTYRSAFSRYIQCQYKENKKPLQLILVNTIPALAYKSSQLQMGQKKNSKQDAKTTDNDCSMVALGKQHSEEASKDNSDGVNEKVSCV
T9 sequence (P50406 whole entry): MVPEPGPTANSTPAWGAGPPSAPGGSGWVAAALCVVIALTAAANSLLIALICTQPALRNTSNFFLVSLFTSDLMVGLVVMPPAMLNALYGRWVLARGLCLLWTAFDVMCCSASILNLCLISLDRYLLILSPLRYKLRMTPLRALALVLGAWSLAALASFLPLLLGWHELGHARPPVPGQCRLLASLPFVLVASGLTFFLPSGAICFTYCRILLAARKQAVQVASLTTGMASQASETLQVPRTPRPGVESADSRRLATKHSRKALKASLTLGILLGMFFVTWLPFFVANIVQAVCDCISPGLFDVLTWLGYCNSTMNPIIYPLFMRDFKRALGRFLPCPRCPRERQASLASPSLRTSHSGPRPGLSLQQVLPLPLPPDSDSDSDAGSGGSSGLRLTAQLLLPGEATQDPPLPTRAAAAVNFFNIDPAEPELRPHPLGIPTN
T4 sequence (P50406 whole entry): as above
T5 sequence (P35462 whole entry): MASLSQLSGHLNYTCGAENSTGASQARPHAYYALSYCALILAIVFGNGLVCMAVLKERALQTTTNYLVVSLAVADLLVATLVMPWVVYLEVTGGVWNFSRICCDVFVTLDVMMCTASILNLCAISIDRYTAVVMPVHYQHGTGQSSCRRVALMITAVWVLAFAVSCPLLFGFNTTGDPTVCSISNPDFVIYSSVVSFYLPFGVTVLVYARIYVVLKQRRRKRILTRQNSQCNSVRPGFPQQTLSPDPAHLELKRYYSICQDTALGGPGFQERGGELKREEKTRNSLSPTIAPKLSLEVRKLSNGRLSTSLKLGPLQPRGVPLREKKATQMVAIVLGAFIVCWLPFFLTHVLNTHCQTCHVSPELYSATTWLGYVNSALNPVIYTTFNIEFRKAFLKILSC

Compound | IC50 (5-HT7) | IC50 (5-HT2c) | IC50 (hD4.2 receptor) | IC50 [1, 10] | IC50 [1, 11] | melting point | IC50 (D1) | Rotarod deficit (%) (mice; 200 p.o. (dose unit not given)) | Rotarod deficit (%) (mice; 300 p.o. (dose unit not given)) | Rotarod deficit (%) (mice; 400 p.o. (dose unit not given)) | TD50 at 120 min (Rotarod deficit in mice) | IC50 (hD3) | IC50 (hD2L) | IC50 (5-HT2a) | IC50 (5-HT1a) | other results
CC1(c2ccc(O)cc2)C(=O)c2c(N3CCNCC3)cc(Cl)cc2N(Cc2cccc(O)c2)C1=O (centres unmarked) [Example 28, 7-Chloro-1-(3-hydroxy-benzyl)-3-(4-hydroxy-phenyl)-3-methyl-5-piperazin-1-yl-1H-quinoline-2,4-dione] | > 10000 nM | > 10000 nM | > 10000 nM | 3 nM | 3 nM | 229 to 230 °C | > 10000 nM | 0% | 0% | 0% | > 400 mg/kg | > 1000 nM | > 10000 nM | > 10000 nM | > 10000 nM | –
COc1ccc(C2(C)C(=O)c3c(N4CCNCC4)cc(Cl)cc3N(Cc3cccc(Br)c3)C2=O)cc1 (centres unmarked) [Example 33, 1-(3-Bromo-benzyl)-7-chloro-3-(4-methoxy-phenyl)-3-methyl-5-piperazin-1-yl-1H-quinoline-2,4-dione] | > 10000 nM | > 1000 nM | > 10000 nM | 1.8 nM | 1.8 nM | 113 to 114 °C | > 1000 nM | 0% | 0% | 0% | > 400 mg/kg | > 1000 nM | > 1000 nM | > 1000 nM | > 1000 nM | binding affinity at 5-HT6 receptor labeled by [3H]LSD, in words ([1]; comment on Table 2): significant affinities
COc1ccc(C2(C)C(=O)c3c(N4CCNCC4)cc(Cl)cc3N(Cc3ccc4ccccc4c3)C2=O)cc1 (centres unmarked) [Example 39, 7-Chloro-3-(4-methoxy-phenyl)-3-methyl-1-naphthalen-2-ylmethyl-5-piperazin-1-yl-1H-quinoline-2,4-dione] | > 1000 nM | > 1000 nM | > 10000 nM | 4.7 nM | 4.7 nM | 169 to 170 °C | > 1000 nM | 0% | 0% | 0% | > 400 mg/kg | > 1000 nM | > 1000 nM | > 1000 nM | > 10000 nM | –
COc1ccc2c(c1)c(CCN(C)C)cn2S(=O)(=O)c1ccccc1 [MS-245] | – | – | – | – | – | – | – | – | – | – | – | – | – | – | – | pA2, antagonist (5-HT6 receptors [2]): 8.88
CNc1cc(NS(=O)(=O)c2ccc(N)cc2)nc(NC)n1 [Ro 04-6790] | – | – | – | – | – | – | – | – | – | – | – | – | – | – | – | food intake (rats [3]): decreased food intake; induction of behavior of yawning, stretching, and chewing (rats [4]): capable of inducing this same effect; anticonvulsant activity (rat): possess anticonvulsant activity
CNc1cc(NS(=O)(=O)c2ccc(N)cc2)cc(NC)n1 [Ro 63-0563] | – | – | – | – | – | – | – | – | – | – | – | – | – | – | – | Ki (5-HT6 receptors [5]): 12 nM
COc1ccc(S(=O)(=O)Nc2cc(Br)cc(F)c2Br)cc1N1CCNCC1 [SB-357134] | – | – | – | – | – | – | – | – | – | – | – | – | – | – | – | retention of a previously learned task (rats [6]): significant improvement; seizure threshold (rat; rat maximal electroseizure threshold, oral administration): potent and dose-dependent increase; clearance and bioavailability, in words ([7]; in vivo): low clearance rate and excellent oral bioavailability
CN(C)CCCN1c2ccccc2Sc2ccc(Cl)cc21 [chlorpromazine] | – | – | – | – | – | – | – | – | – | – | – | – | – | – | – | affinity at 5-HT6 receptors, in words (5-HT6 receptors [5]): bind with high affinity
CN(C)CC/C=C1/c2ccccc2Sc2ccc(Cl)cc21 [chlorprothixene] | – | – | – | – | – | – | – | – | – | – | – | – | – | – | – | affinity at 5-HT6 receptors, in words (5-HT6 receptors [5]): bind with high affinity
SB-271046 [reference compound] | – | 3960 nM | > 10000 nM | – | – | – | – | – | – | – | – | – | > 10000 nM | – | – | extracellular glutamate levels [8]: increased extracellular glutamate levels in frontal cortex and dorsal hippocampus by several fold; retention of a previously learned task (rats [6]): significant improvement; anticonvulsant activity (rat): possess anticonvulsant activity; mean startle amplitude compared with methamphetamine group (rats [9]; administered 30 min before methamphetamine): no significant differences; disruption of PPI by methamphetamine, effect of pretreatment (rats [9]; rats, i.p., 30 min before methamphetamine (3, i.p.), P<0.05): reversed significantly; oral bioavailability ([7]; background literature): > 80%
